In patent US7829560B2, “1,4-disubstituted naphthalenes as inhibitors of P38 MAP kinase” (Arqule, Inc., priority 2004, dated 2010):
Values joined by “and” are separate entries in the source; they are usually repeats but may differ in a detail not shown here. Equal values may be shown once.

How the values were obtained:
[1] = tested on: TNFα release from THP-1 cells; assay: Inhibition of TNFα release from LPS-stimulated THP-1 cells, ELISA; format: cell-based; details: Homo sapiens, THP-1, THP-1 cells, read-out: [CELL] THP-1, IC50, TNF ALPHA, ELISA
From the text: Compounds of the invention are screened for the ability to inhibit TNFα and IL-1β release from THP-1 cells stimulated with lipopolysaccharide (LPS) in vitro. The ability of compounds to inhibit TNFα and IL-1β release in this in vitro assay is correlated with the inhibition of p38 activity and TNFα and IL-1β expression in vivo, and is therefore an indicator of potential in vivo therapeutic activity (Lee J. C. et al, Ann. N.Y. Acad. Sci. 696: 149-170, 1993 and Nature, 372: 739-746, 1994).
Materials: THP-1 cells from ATCC (TIB202) are maintained at 37° C., 5% CO2 in RPMI 1640 media (available from MediaTech, Herndon, Va.) containing 4.5 g/L glucose, supplemented with 10% fetal bovine serum, 1% penicillin/streptomycin and 50 μM β-mercaptoethanol.
Methods: Test compounds are initially dissolved in RPMI media with 1% DMSO (v/v). Compounds are then serially diluted in RPMI media for all subsequent dilutions. The assay is performed under sterile conditions. THP-1 cells at a culture density of 6-8×10^5 cells/ml are collected and resuspended in the RPMI media at 10^6 cells/ml containing 10% fetal bovine serum, no serum or 1% human serum albumin (HSA). 100 μl of resuspended cells are added to each well, which contain 100 μl of a test compound. Test compounds are prepared at twice the final concentration. Final DMSO concentration is no more than 0.5% (v/v). Cells are preincubated with compound for 30 minutes at 37° C., 5% CO2 prior to stimulation with lipopolysaccharide (LPS) (Sigma L-2880, 4 mg/ml stock in PBS). The final LPS concentration in each well is 10 or 30 μg/ml for TNFα and IL-1β release, respectively. Unstimulated control cell suspensions receive PBS vehicle only. Cell mixtures are incubated for 18 or 48 hours for TNFα and IL-1β prelease, respectively. 150 μl of supernatants are taken and transferred to a fresh plate and stored at −20° C. until further analysis. TNFα and IL-1β levels are measured using ELISA kits from Biosource (Catalog no. KHC3012 for TNFα; KAC1192 for IL-1β). A SpectraMAX 250 is used as the plate reader. Analysis is performed by non-linear regression to generate a dose response curve. The calculated IC50 value is the concentration of the test compound that causes a 50% decrease in TNFα or IL-1β levels.

[2] = molecular target: T1, p38α (Homo sapiens, UniProt Q16539); assay: p38 MAP Kinase assay: inhibition of ATF2 phosphorylation, ELISA; format: biochemical; details: for IC50: ATF2 phosphorylation, read-out: [ENZ] P38 ALPHA, IC50, ELISA; for inhibition at 10 µM: substrate ATF2, read-out: [ENZ] P38 ALPHA, PCT INH, ELISA (10 uM;ATF2) (Percent)
T1 construct: p38 MAP Kinases are recombinant human full-length proteins with an amino-terminal GST fusion; GST (N); purchased Upstate Biotechnology Inc; host or cells: E. coli
T1 sequence (Q16539 whole entry, the tested form may be a part): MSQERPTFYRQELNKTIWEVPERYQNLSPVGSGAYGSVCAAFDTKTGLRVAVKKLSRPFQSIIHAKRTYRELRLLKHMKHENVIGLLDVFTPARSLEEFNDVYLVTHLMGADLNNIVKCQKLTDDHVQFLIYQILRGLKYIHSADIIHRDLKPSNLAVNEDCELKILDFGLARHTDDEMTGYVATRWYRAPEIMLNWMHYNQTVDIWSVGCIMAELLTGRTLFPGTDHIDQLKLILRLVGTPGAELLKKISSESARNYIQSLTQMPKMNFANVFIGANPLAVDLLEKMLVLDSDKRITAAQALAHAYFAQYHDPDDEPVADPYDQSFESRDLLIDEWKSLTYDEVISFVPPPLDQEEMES
Summary of the method: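 In vitro phosphorylation of ATF2 at Thr69 by recombinant human GST-p38 MAP kinase, read by anti-phospho-ATF2 ELISA at 450 nm. Enzyme and compound pre-incubated 15 min at RT, then 30 min reaction at 37 °C with 40 μM ATP and 1.25 μM ATF2; buffer with or without 1% HSA (Method II or I).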

SMILES	IC50 [1] [nM]	IC50 [2]	inhibition at 10 µM [2] [%]
O=C(Nc1ccc(OCCN2CCOCC2)c2ccccc12)c1ccnc(N2CCC(O)CC2)c1 [Compound B43, 4-Hydroxy-3,4,5,6-tetrahydro-2 H-[1,2′]bipyridinyl-4′-carboxylic acid [4-(2-morpholin-4-yl-ethoxy)-naphthalen-1-yl]-amide]	2720	> 10000 nM	
O=C(Nc1ccc(Oc2ccnc(NC3(CO)CCCC3)n2)c2ccccc12)c1cc(F)cc(N2CCCCC2)c1 [Compound B399, 3-Fluoro-N-{4-[(2-{[1-(hydroxymethyl)cyclopentyl]amino}pyrimidin-4-yl)oxy]-1-naphthyl}-5-piperidin-1-ylbenzamide]	136	12.7 nM	
CC1CCC(Oc2cc(F)cc(C(=O)Nc3ccc(OCCN4CCOCC4)c4ccccc34)c2)CC1 (stereo not drawn) [Compound B234, 3-Fluoro-5-[(4-methylcyclohexyl)oxy]-N-[4-(2-morpholin-4-ylethoxy)-1-naphthyl]benzamide]	3190	1050 nM	
O=C(Nc1ccc(OCCN2CCOCC2)c2ccccc12)c1cccc(-c2ccc(F)cc2)c1 [Compound B277]	1840	777 nM	
CC1CCN(c2cc(C(=O)Nc3ccc(OCCN4CCOCC4)c4ccccc34)cc(Cl)n2)CC1 [Compound B218]	3580	876 nM	
CC(C)(C)C1CCC(Oc2cc(F)cc(C(=O)Nc3ccc(OCc4ccncc4)c4ccccc34)c2)CC1 (stereo not drawn) [Compound B236]	> 10000	> 10000 nM	
CC(C)(C)CNc1cc(F)cc(C(=O)Nc2ccc(OCCN3CCOCC3)c3ccccc23)c1 [Compound B209, 3-[(2,2-Dimethylpropyl)amino]-5-fluoro-N-[4-(2-morpholin-4-ylethoxy)-1-naphthyl]benzamide]	> 10000	513 nM	
Cc1cc(C(=O)Nc2ccc(OCCN3CCOCC3)c3ccccc23)cc(N2CCCC2C)n1 (stereo not drawn) [Compound B155, 2-Methyl-6-(2-methyl-pyrrolidin-yl)-N-[4-(2-morpholin-4-yl-ethoxy)-naphthalen-1-yl]-isonicotinamide]	2450	745 nM	89
COc1ccc(C(C)C)cc1-c1cccc(C(=O)Nc2ccc(OCCN3CCOCC3)c3ccccc23)c1 [Compound B294]	> 10000	> 10000 nM	
CC1CCN(c2cc(F)cc(C(=O)Nc3ccc(N4CCN(C(=O)OC(C)(C)C)CC4)c4ccccc34)c2)CC1 [Compound B192]	4720	> 10000 nM	
O=C(Nc1ccc(OCCN2CCOCC2)c2ncccc12)c1cc(F)cc(N2CCOCC2)c1 [Compound B244]	> 10000	> 10000 nM	
O=C(Nc1ccc(OCCN2CCC(CO)CC2)c2ccccc12)c1cc(F)cc(N2CCCCC2)c1 [Compound B163, 3-Fluoro-N-{4-[2-(4-hydroxymethyl-piperidin-1-yl)-ethoxy]-naphthalen-1-yl}-5-piperidin-1-yl-benzamide]	> 10000	4840 nM	57
O=C(Nc1ccc(Oc2ccnc(N3CCC(CO)CC3)n2)c2ccccc12)c1cc(F)cc(N2CCOCC2)c1 [Compound B359]	104	4.2 nM	
CC(=O)N1CCN(c2nccc(Oc3ccc(NC(=O)c4cc(F)cc(N5CCOCC5)c4)c4ccccc34)n2)CC1 [Compound B354]	217	9.4 nM	
COc1cccc(-c2cccc(C(=O)Nc3ccc(OCCN4CCOCC4)c4ccccc34)c2)c1 [Compound B91]	3550	900 nM	78
CN1CCC(Nc2nccc(Oc3ccc(NC(=O)c4cc(F)cc(N5CCCCC5)c4)c4ccccc34)n2)CC1 [Compound B409, 3-Fluoro-N-[4-({2-[(1-methylpiperidin-4-yl)amino]pyrimidin-4-yl}oxy)-1-naphthyl]-5-piperidin-1-ylbenzamide]	68.7	1.8 nM	
CN(C(=N)N)c1nccc(Oc2ccc(NC(=O)c3cc(F)cc(N4CCCCC4)c3)c3ccccc23)n1 [Compound B413]	> 1000	36.3 nM	

SMILES	IC50 [1] [nM]	IC50 [2]	inhibition at 10 µM [2] [%]
C=Cc1ccc(-c2cccc(C(=O)Nc3ccc(OCCN4CCOCC4)c4ccccc34)c2)cc1 [Compound B281]	> 10000	> 10000 nM	
O=C(Nc1ccc(OCCN2CCOCC2)c2ccccc12)c1ccc2c(c1)OCCCO2 [Compound B62]	> 10000	> 10000 nM	
O=C(Nc1ccc(OCCN2CCOCC2)c2ccccc12)c1cc(F)cc(F)c1 [Compound B204]	> 10000	> 10000 nM	
Cc1cccc(-c2cccc(C(=O)Nc3ccc(OCCN4CCOCC4)c4ccccc34)c2)c1 [Compound B104]	4440	965 nM	66
C[C@@H]1CN(c2cccc(C(=O)Nc3ccc(OCCN4CCOCC4)c4ccccc34)c2)C[C@H](C)O1 [Compound B31]	> 10000	10000 nM	
Cc1ccc(C(=O)Nc2ccc(OCCN3CCOCC3)c3ccccc23)cc1N1CCOCC1 [Compound B40, 4-Methyl-3-morpholin-4-yl-N-[4-(2-morpholin-4-yl-ethoxy)-naphthalen-1-yl]-benzamide]	> 10000	2490 nM	
CCOC(=O)N1CCN(c2nccc(Oc3ccc(NC(=O)c4cc(F)cc(N5CCOCC5)c4)c4ccccc34)n2)CC1 [Compound B329, Ethyl-4-[4-({4-[(3-fluoro-5-morpholin-4-ylbenzoyl)amino]-1-naphthyl}oxy)pyrimidin-2-yl]piperazine-1-carboxylate]	> 1000	10.5 nM	
O=C(Nc1ccc(OCCN2CCOCC2)c2ccccc12)c1cccc(-c2ccc(C(F)(F)F)cc2)c1 [Compound B271]	4030	> 10000 nM	
O=C(Nc1ccc(OCCCN2CCC(O)CC2)c2ccccc12)c1cc(F)cc(N2CCCCC2)c1 [Compound B162, 3-Fluoro-N-{4-[3-(4-hydroxy-piperidin-1-yl)-propoxy]-naphthalen-1-yl}-5-piperidin-1-yl-benzamide]	> 10000	9890 nM	59.5
O=C(Nc1ccc(CN2CCOCC2)c2ccccc12)c1cc(F)cc(N2CCOCC2)c1 [Compound B316, 3-Fluoro-5-morpholin-4-yl-N-(4-morpholin-4-ylmethyl-naphthalen-1-yl)-benzamide]	879	1200 nM	
O=C(Nc1ccc(OCCN2CCOCC2)c2ccccc12)c1cc(F)cc(N2CCN(c3ccc(F)cc3)CC2)c1 [Compound B203]	> 10000	> 10000 nM	
CC(=O)c1ccc(-c2cccc(C(=O)Nc3ccc(OCCN4CCOCC4)c4ccccc34)c2)cc1 [Compound B274]	> 10000	> 10000 nM	
CN(C)CC(C)(C)CNc1nccc(Oc2ccc(NC(=O)c3cc(F)cc(OC4CCCCC4)c3)c3ccccc23)n1 [Compound B313]	48.3	2 nM and 2.2 nM	
CC(C)(C)CNc1cccc(C(=O)Nc2ccc(OCCN3CCOCC3)c3ccccc23)c1 [Compound B173, 3-(2,2-Dimethyl-propylamino)-N-[4-(2-morpholin-4-yl-ethoxy)-naphthalen-1-yl]-benzamide]	2280	735 nM	89.5
CC1CC(C)CN(c2nccc(Oc3ccc(NC(=O)c4cc(F)cc(N5CCCCC5)c4)c4ccccc34)n2)C1 (stereo not drawn) [Compound B391]	> 1000	207 nM	
O=C(Nc1ccc(OCCN2CCOCC2)c2ccccc12)c1cccc(-c2cccc(OC(F)(F)F)c2)c1 [Compound B297]	> 10000	> 10000 nM	
